In assay [1] the target is Calcium/calmodulin-dependent protein kinase kinase 2 (Homo sapiens) (UniProt Q96RR4). The assay is described as follows: Selectivity interaction (KinomeScan (DiscoverX)) EUB0001619a CAMKK2. Conditions: at 1 µM.
The target of assay [2] is Leukocyte tyrosine kinase receptor (Homo sapiens, UniProt P29376). Description: Selectivity interaction (KinomeScan (DiscoverX)) EUB0000607a LTK. The following applies: at 10 µM.
Assay [3] deals with T1, Ephrin type-A receptor 8 (Homo sapiens) (UniProt P29322).
T1 sequence (whole entry): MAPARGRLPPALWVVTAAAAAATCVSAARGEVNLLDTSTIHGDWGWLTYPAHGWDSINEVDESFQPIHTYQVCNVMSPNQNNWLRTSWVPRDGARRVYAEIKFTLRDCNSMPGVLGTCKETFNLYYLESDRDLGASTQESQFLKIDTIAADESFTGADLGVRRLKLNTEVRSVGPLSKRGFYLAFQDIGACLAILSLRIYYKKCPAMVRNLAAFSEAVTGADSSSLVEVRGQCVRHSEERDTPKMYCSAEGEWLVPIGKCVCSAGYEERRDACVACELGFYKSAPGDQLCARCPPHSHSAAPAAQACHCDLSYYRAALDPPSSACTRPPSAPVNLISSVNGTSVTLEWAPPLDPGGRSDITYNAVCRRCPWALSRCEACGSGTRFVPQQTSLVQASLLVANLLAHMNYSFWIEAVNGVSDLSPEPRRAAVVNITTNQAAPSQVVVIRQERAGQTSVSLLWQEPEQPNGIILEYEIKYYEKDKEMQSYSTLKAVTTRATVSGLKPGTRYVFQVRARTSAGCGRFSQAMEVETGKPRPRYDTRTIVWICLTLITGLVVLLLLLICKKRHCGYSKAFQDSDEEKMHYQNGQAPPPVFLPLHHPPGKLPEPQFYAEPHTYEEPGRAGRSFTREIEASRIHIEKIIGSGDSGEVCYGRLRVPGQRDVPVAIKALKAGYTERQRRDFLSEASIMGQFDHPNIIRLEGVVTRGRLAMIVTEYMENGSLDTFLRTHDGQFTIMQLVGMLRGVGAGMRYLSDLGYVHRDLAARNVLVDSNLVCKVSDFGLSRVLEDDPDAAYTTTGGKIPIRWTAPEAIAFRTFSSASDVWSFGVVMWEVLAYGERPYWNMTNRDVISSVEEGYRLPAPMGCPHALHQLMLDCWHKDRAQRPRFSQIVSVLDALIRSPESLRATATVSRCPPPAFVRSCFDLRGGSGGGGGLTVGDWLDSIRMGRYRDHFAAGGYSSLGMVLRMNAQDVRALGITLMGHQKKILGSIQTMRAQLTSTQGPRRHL
Description: Selectivity interaction (Kinase panel (Invitrogen)) EUB0000639a EPHA8. Conditions: at 200 nM.

Assay [4] deals with Protein kinase C theta type (Homo sapiens, UniProt Q04759). The assay is described as follows: Selectivity interaction (Kinase panel (33PanQinase(R) Activity Assay)) EUB0000877a PRKCQ.
Assay [5] has as its target T2, SNF-related serine/threonine-protein kinase (Homo sapiens) (UniProt Q9NRH2).
T2 sequence (whole entry): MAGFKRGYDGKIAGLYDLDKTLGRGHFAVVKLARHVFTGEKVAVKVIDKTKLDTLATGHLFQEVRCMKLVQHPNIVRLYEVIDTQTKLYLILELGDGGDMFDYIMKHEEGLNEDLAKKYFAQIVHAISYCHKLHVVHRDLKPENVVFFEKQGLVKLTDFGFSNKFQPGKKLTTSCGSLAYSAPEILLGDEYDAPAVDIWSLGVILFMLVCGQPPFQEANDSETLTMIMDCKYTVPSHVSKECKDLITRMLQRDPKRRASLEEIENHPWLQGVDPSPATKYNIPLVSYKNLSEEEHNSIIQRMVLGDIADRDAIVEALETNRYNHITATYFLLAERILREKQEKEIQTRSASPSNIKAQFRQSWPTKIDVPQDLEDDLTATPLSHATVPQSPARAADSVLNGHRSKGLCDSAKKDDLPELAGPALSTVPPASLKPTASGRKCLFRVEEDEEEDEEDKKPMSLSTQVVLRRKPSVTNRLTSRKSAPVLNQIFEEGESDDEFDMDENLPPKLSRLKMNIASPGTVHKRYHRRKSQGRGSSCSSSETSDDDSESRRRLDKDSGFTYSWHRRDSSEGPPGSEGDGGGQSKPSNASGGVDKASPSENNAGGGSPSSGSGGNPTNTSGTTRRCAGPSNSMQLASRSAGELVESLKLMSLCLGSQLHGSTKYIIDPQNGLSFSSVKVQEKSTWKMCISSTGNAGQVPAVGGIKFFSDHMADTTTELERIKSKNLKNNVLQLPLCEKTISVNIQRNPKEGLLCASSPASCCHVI
The assay is described as follows: Selectivity interaction (Kinase panel (KiNativ target engagement assay in Jurkat cells)) EUB0001635a SNRK. The format is cell-based. The following applies: at 1 µM.

Each structure is given as a SMILES string. Some results are limits rather than exact numbers.

The source of these data is ChEMBL document CHEMBL5465560, “Selectivity Literature for EUbOPEN Chemogenomic Library” (2024).

Sequence of Protein kinase C theta type (Q04759 whole entry): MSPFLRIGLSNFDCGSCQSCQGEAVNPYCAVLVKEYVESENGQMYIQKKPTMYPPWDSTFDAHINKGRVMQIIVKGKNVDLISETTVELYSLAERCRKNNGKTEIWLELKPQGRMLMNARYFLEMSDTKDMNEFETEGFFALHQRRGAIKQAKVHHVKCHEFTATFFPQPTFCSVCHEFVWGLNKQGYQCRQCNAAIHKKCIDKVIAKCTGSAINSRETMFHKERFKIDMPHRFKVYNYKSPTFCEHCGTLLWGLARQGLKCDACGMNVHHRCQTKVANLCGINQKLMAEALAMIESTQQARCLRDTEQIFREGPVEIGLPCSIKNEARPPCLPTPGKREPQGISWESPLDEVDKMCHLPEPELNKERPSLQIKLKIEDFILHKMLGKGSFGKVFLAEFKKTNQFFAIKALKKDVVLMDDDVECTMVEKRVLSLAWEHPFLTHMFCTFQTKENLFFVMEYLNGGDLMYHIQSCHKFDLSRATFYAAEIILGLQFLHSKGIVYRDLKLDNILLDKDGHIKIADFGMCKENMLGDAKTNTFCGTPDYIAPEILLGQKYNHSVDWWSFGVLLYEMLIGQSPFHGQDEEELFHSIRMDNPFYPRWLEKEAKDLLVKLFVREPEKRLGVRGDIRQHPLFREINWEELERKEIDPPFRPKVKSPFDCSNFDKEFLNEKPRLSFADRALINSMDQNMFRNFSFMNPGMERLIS
Sequence of Leukocyte tyrosine kinase receptor (P29376 whole entry): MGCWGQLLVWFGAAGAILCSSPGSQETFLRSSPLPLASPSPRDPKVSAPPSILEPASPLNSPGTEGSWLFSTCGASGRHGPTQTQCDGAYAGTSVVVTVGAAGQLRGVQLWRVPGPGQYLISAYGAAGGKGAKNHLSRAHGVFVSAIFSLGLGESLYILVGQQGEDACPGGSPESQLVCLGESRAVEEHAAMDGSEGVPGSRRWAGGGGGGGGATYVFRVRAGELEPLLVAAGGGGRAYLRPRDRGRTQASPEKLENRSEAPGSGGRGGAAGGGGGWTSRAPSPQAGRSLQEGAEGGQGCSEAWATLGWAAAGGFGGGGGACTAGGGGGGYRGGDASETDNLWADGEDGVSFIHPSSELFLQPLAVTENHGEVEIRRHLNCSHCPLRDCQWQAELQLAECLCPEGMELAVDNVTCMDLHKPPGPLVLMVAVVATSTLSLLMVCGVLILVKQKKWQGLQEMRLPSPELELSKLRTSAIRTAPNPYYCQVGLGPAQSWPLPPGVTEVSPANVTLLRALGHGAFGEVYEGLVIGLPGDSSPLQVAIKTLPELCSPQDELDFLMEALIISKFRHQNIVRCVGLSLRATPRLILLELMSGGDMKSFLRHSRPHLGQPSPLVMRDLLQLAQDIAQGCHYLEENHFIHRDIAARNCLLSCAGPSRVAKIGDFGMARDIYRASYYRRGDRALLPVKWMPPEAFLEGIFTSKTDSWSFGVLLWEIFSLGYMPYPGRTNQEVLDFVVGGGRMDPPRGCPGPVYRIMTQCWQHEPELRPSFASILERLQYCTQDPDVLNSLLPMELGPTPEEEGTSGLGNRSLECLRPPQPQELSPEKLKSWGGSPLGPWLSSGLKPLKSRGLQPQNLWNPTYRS
Sequence of Calcium/calmodulin-dependent protein kinase kinase 2 (Homo sapiens) (Q96RR4 2-588 limits assumed): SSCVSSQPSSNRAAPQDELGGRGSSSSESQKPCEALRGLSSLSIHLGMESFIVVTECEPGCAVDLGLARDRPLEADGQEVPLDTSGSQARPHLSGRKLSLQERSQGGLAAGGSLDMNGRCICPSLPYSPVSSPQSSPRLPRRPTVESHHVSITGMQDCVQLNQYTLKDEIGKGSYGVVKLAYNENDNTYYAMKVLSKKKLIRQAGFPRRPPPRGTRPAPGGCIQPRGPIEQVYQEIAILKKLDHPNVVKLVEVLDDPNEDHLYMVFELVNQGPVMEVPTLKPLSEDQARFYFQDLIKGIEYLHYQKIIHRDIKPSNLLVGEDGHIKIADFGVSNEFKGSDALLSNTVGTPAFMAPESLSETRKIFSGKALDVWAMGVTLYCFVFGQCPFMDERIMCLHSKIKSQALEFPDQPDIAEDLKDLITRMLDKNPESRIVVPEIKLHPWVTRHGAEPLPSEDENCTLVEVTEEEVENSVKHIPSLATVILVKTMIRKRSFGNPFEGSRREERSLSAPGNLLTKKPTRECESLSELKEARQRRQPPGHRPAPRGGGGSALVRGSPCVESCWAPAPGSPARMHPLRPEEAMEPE

For the molecule `N#Cc1cccc(-c2c[nH]c3ncnc(N4CCOCC4)c23)c1`, the % of control in assay [1] is 78%. Consider `CNC(=O)Nc1ccc(-c2nc(N3CC4CCC(C3)O4)c3cnn(C4CCC5(CC4)OCCO5)c3n2)cc1`, for which, in assay [2], the % of control was 68%. Take `CC[C@@H]1[C@H](F)C(=O)N[C@@H]1COc1nccc2cc(C(N)=O)c(OC)cc12` [ZIMLOVISERTIB]: in assay [3], the % of inhibition was -0.726%. Broadly, the IC50 is the point on the concentration scale where inhibition reaches its midpoint. High values mean lower potency, low ones higher potency. In the case of `CCC(=O)N1CC[C@H](Nc2ncnc3c2CN(c2cnc(OC)c(C(F)(F)F)c2)CC3)C1` [LENIOLISIB], the IC50 in assay [4] is more than 10 µM.

For the molecule `C=CC(=O)Nc1ccc(C(=O)Nc2[nH]nc3c2CN(C(=O)N[C@H](CN(C)C)c2ccccc2)C3(C)C)cc1`, the % of engagement in assay [5] (Selectivity number of off-targets 0.0, Selectivity number of targets 233.0, Source Knowledge https://www.sciencedirect.com/science/article/pii/S2451945619300674?via%3Dihub) turned out to be 6.9%; in assay [5], 30.4%.
